Test results as given in ChEMBL document CHEMBL2040790 (Bioorg Med Chem Lett, 2012).

Experiments:
La Crosse virus = assay: Antiviral activity against La Crosse virus infected in african green monkey Vero cells assessed as inhibition of virus-induced cytopathic effect by fluorometric analysis; assay type: functional, organism-based
Vaccinia virus = assay: Antiviral activity against Vaccinia virus; assay type: functional, organism-based; conditions: Orthopoxvirus vaccinia

| SMILES | EC50 (La Crosse virus) | EC50 (Vaccinia virus) |
| --- | --- | --- |
| CC(C)(C)c1ccc(C(=O)NC(=S)Nc2cc(OC(F)(F)F)ccc2Cl)cc1 | > 25 µM | 1.9 µM |
| CC(C)(C)c1ccc(C(=O)NC(=S)Nc2ccc(Cl)cc2Cl)cc1 | > 25 µM | > 25 µM |
| Cc1cccc(Cl)c1NC(=S)NC(=O)c1ccc(C(C)(C)C)cc1 | 0.94 µM | 2.49 µM |
| COc1cc(NC(=S)NC(=O)c2ccc(C(C)(C)C)cc2)ccc1NC(=O)c1ncc[nH]1 | > 25 µM | > 25 µM |
| CC(C)(C)c1ccc(C(=O)NC(=S)Nc2cccc(Cl)c2)cc1 | 4.16 µM | 1.58 µM |
| Cc1ccc(NC(=S)NC(=O)c2ccc(C(C)(C)C)cc2)c(C)c1 | 0.88 µM | 1.06 µM |
| CN(Cc1ccccc1)S(=O)(=O)c1ccc(NC(=S)NC(=O)c2ccc(C(C)(C)C)cc2)cc1 | > 25 µM | > 25 µM |
| COc1cc(NC(=S)NC(=O)c2ccc(C(C)(C)C)cc2)ccc1NC(=O)c1ccncc1 |  | 2.03 µM |
| COc1cc(NC(=S)NC(=O)c2ccc(C(C)(C)C)cc2)ccc1NC(=O)CCC(=O)O | > 25 µM | > 25 µM |
| CC(C)(C)c1ccc(C(=O)NC(=S)Nc2ccc(Cl)cc2)cc1 | > 25 µM | > 25 µM |
| CC(C)(C)c1ccc(C(=N)NC(=S)Nc2ccccc2Cl)cc1 | > 25 µM | > 25 µM |
| COc1cc(N/C(=N/C(=O)c2ccc(C(C)(C)C)cc2)SCCN(C)C)ccc1NC(=O)c1ccccc1Cl | > 25 µM | > 25 µM |
| CC(C)(C)c1ccc(C(=O)NC(=S)Nc2ccc(S(=O)(=O)N3CCCCC3)cc2)cc1 | > 25 µM | > 25 µM |
| CC(C)(C)c1ccc(C(=O)NC(=S)Nc2ccc(NC(=O)c3ccccc3Cl)c(N)c2)cc1 | 0.05 µM | 0.06 µM |
| COc1cc(NC(=S)NC(=O)c2ccc(C(C)(C)C)cc2)ccc1NC(=N)N | > 25 µM | > 25 µM |
| CC(C)(C)c1ccc(C(=O)NC(=S)Nc2ccc(Nc3ccccn3)cc2)cc1 | > 25 µM | > 25 µM |
| COc1cc(NC(=S)NC(=O)c2ccc(C(C)(C)C)cc2)ccc1NC(=O)c1cccc(N)c1 | > 25 µM | > 25 µM |
| Cc1ccc(NC(=S)NC(=O)c2ccc(C(C)(C)C)cc2)cc1C | 1.23 µM | 3.93 µM |
| Cc1cccc(NC(=S)NC(=O)c2ccc(C(C)(C)C)cc2)c1C | 2.59 µM | 1.83 µM |
| Cc1ccc(C)c(NC(=S)NC(=O)c2ccc(C(C)(C)C)cc2)c1 | > 25 µM | 2.86 µM |

| SMILES | EC50 (La Crosse virus) | EC50 (Vaccinia virus) |
| --- | --- | --- |
| CC(C)(C)c1ccc(C(=O)NC(=S)Nc2ccc(NC(=O)c3ccccc3)cc2Cl)cc1 | 0.08 µM | 0.16 µM |
| CC(C)(C)c1ccc(C(=O)NC(=S)Nc2cccc(NC(=O)c3ccccc3Cl)c2)cc1 | > 25 µM | > 25 µM |
| CC(C)(C)c1ccc(C(=O)NC(=S)Nc2ccc(S(=O)(=O)NC3CCCCC3)cc2)cc1 | > 25 µM | > 25 µM |
| COc1cc(NC(=S)NC(=O)c2ccc(C(C)(C)C)cc2)ccc1NC(=O)c1c[nH]cn1 | > 25 µM | > 25 µM |
| CC(C)(C)c1ccc(C(=O)NC(=S)NC2CCCCC2)cc1 | 3.71 µM | 4.92 µM |
| CC(C)(C)c1ccc(C(=O)NC(=S)Nc2nc(-c3cccc([N+](=O)[O-])c3)cs2)cc1 | > 25 µM | > 25 µM |
| CCS/C(=N\C(=O)c1ccc(C(C)(C)C)cc1)Nc1ccccc1Cl | 0.51 µM | 1.91 µM |
| COc1ccccc1NC(=S)NC(=O)c1ccc(C(C)(C)C)cc1 | 1.15 µM | 1.39 µM |
| COc1cc(NC(=S)NC(=O)c2ccc(C(C)(C)C)cc2)ccc1NC(=O)c1ccccc1N | > 25 µM | 2.61 µM |
| COc1cc(N/C(=N/C(=O)c2ccc(C(C)(C)C)cc2)SCC(=O)OC(C)(C)C)ccc1NC(=O)c1ccccc1Cl | > 25 µM | > 25 µM |
| Cc1cccc(NC(=S)NC(=O)c2ccc(C(C)(C)C)cc2)c1Cl | 1.17 µM | 1.83 µM |
| COc1cc(NC(=S)NC(=O)c2ccc(C(C)(C)C)cc2)ccc1NC(C)=O | 1.35 µM | 3.27 µM |
| COc1cc(NC(=S)NC(=O)c2ccc(C(C)(C)C)cc2)ccc1NC(=N)c1ccccc1Cl | 2.06 µM | 1.75 µM |
| Cc1ccc(NC(=S)NC(=O)c2ccc(C(C)(C)C)cc2)cc1 | 4.86 µM | 1.91 µM |
| CC(C)(C)c1ccc(C(=O)NC(=S)Nc2cccc([N+](=O)[O-])c2)cc1 | > 25 µM | > 25 µM |
| CC(C)(C)c1ccc(C(=O)NC(=S)Nc2ccccc2[N+](=O)[O-])cc1 | 3.7 µM | 3.64 µM |
| CC(C)(C)c1ccc(C(=O)NC(=S)Nc2ccc(C(=O)O)cc2)cc1 | > 25 µM | > 25 µM |
| CC(C)(C)c1ccc(C(=O)NC(=S)Nc2ccc(N)cc2Cl)cc1 | 0.75 µM | 0.62 µM |
| COc1cccc(NC(=S)NC(=O)c2ccc(C(C)(C)C)cc2)c1 | > 25 µM | 4.07 µM |
| CC(C)(C)c1ccc(C(=O)NC(=S)Nc2cc(C(F)(F)F)ccc2Cl)cc1 | 0.6 µM | 1 µM |

| SMILES | EC50 (La Crosse virus) | EC50 (Vaccinia virus) |
| --- | --- | --- |
| COc1ccc(NC(=S)NC(=O)c2ccc(C(C)(C)C)cc2)cc1NC(=O)c1ccccc1Cl | > 25 µM | > 25 µM |
| CC(C)(C)c1ccc(C(=O)NC(=S)Nc2ccc(Nc3ccncc3)cc2)cc1 | 7.7 µM | > 25 µM |
| Cc1cccc(NC(=S)NC(=O)c2ccc(C(C)(C)C)cc2)c1 | 1.33 µM | 1.01 µM |
| COc1cc(NC(=S)NC(=O)c2ccc(C(C)(C)C)cc2)ccc1NC(=O)CCN(C)C | > 25 µM | > 25 µM |
| CC(C)(C)c1ccc(C(=O)NC(=S)Nc2ccc(NC(=O)c3ccccc3Cl)c(O)c2)cc1 | 0.21 µM | 0.23 µM |
| COc1cc(NC(=S)NCc2ccc(C(C)(C)C)cc2)ccc1NC(=O)c1ccccc1Cl | > 25 µM | > 25 µM |
| CN(C)c1ccc(NC(=S)NC(=O)c2ccc(C(C)(C)C)cc2)cc1 |  | 2.43 µM |
| CC(C)(C)c1ccc(C(=O)NC(=S)Nc2cccnc2)cc1 | > 25 µM | > 25 µM |
| CCS/C(=N\C(=O)c1ccc(C(C)(C)C)cc1)Nc1ccc(NC(=O)c2ccccc2Cl)c(OC)c1 | 0.3 µM | 0.23 µM |
| COc1cc(NC(=S)NC(=O)c2ccc(C(C)(C)C)cc2)ccc1NC(=O)CC(=O)O | > 25 µM | > 25 µM |
| CC(C)(C)c1ccc(C(=O)NC(=S)Nc2cccc(CN)c2)cc1 | > 25 µM | > 25 µM |
| CNc1ccc(NC(=S)NC(=O)c2ccc(C(C)(C)C)cc2)cc1 | 1.45 µM | 1.16 µM |
| CC(C)(C)c1ccc(C(=O)NC(=S)Nc2cccc(C(=O)O)c2)cc1 | > 25 µM | > 25 µM |
| COc1ccc(NC(=S)NC(=O)c2ccc(C(C)(C)C)cc2)cc1 | > 25 µM | 2.39 µM |
| COc1cc(NC(=S)NC(=O)c2ccc(C(C)(C)C)cc2)ccc1NC(=O)c1cccnc1 |  | 1.72 µM |
| COc1cc(NC(=S)NC(=O)c2ccc(C(C)(C)C)cc2)ccc1NC(=O)c1ccc(N)cc1 | > 25 µM | 20 µM |
| COc1cc(NC(=S)NC(=O)c2ccc(C(C)(C)C)cc2)ccc1NC(=O)c1cnccn1 | > 25 µM | > 25 µM |
| COc1cc(N/C(=N/C#N)NC(=O)c2ccc(C(C)(C)C)cc2)ccc1NC(=O)c1ccccc1Cl |  | > 25 µM |
| COc1cc(NC(=N)NC(=O)c2ccc(C(C)(C)C)cc2)ccc1NC(=O)c1ccccc1Cl |  | > 25 µM |
